Experimental data taken from patent US9657288B2, “Connector compound peptide phage display” (BICYCLE THERAPEUTICS LIMITED, priority 2008, dated 2017).
*1 amine or outer side, *2 acyl side, *3 side chain or, on linkers, in order; H or OH if unused. Where a SMILES comes first, the peptide text is derived from it. Bridges are numbered along the chain shown (N, C = ends). TBMB = c1c(C[*:1])cc(C[*:3])cc1C[*:2]

What was measured:
[1] = molecular target: Angiotensin converting enzyme 2 (ACE2) (Homo sapiens, UniProt Q9BYF1); details: reference 7; read-out: Affinity K1; cited from earlier work
plasma kallikrein [2] = molecular target: T1, plasma kallikrein (Homo sapiens, UniProt P03952); test: Activity measurement of chemically synthesized human plasma kallikrein inhibitors (residual activity, Z-Phe-Arg-AMC); assay type: biochemical; set-up: purchased Innovative Research (Southfiled, Mich., USA); details: for IC50: synthetic peptide after modification with TBMB, human plasma kallikrein 0.1 nM, read-out: IC50 (nM) Bi-cyclic peptide
Protocol: (§1) Recombinant mouse plasma kallikrein from R&D Systems (Minneapolis, Minn., USA) with a signal peptide was proteolytically activated with 0.5 mg/ml thermolysin at 37° C. for 1 hr. […] Inhibitor hydrolysed in one binding loop was generated by incubation of TBMB modified peptide PK15 with human plasma kallikrein at a molar ration of 5:1 for 24 hours at 37° C. and subsequent heat inactivation of the enzyme at 60° C. (30 min). Apparent Ki values were calculated according to the Cheng and Prusoff equation (Cheng, Y. and Prusoff, W. H., Biochem. Pharmacol., 1973).
as §1, with “ratio” for “ration”, “equation.” for “equation (Cheng, Y. and Prusoff, W. H., Biochem. Pharmacol., 1973).”

[3] = molecular target: Urokinase-type plasminogen activator (uPA) (Mus musculus, UniProt P06869); details: reference 4; read-out: Affinity K1; cited from earlier work
[4] = system: thrombin generation in human plasma; test: Contact activation in human plasma: thrombin activation time triggered by actin; assay type: biochemical; details: for thrombin formation in human plasma: 50 nM inhibitor concentration
[5] = in vivo; cited from earlier work
[6] = system: factor XIIa and plasma kallikrein in human plasma; test: Activation of factor XIIa and plasma kallikrein in human plasma after kaolin (H-D-Pro-Phe-Arg-pNA); assay type: biochemical; details: for IC50: human plasma, kaolin, read-out: inhibitor concentration required to reduce factor XIIa activity by 50%
Protocol: (§2) Normal human plasma from single donors was purchased from 3H Biomedical (Uppsala, Sweden). The plasma was centrifuged at 1500×g at 20° C. for 15 minutes to obtain platelet-poor plasma (PPP). Aliquots of the PPP were stored in polypropylene tubes at −80° C. […] Activation of factor XIIa and human plasma kallikrein were measured as follows. 2 μg kaolin was added to the plasma samples, mixed well and incubated for 20 minutes at 37° C. The samples were diluted 250-fold in 50 mM Tris-Cl pH 7.8, 150 mM NaCl. Plasma kallikrein-like activity was measured with the chromogenic substrate H-D-Pro-Phe-Arg-pNA (100 μM; Bachem, Bubendorf, Switzerland) using an absorption plate reader (absorption at […]; Molecular Devices, Sunnyvale, Calif., USA).
as §2, with “was” for “and human plasma kallikrein were”, “μg of” for “μg”, “H-D-Pro-Phe-Arg (SEQ ID No. 37)-pNA” for “H-D-Pro-Phe-Arg-pNA”, “USA). The same chromogenic substrate is also recognized and modified by plasma kallikrein.” for “USA).”

Pancreatic lipase = molecular target: T2, Pancreatic lipase (Sus scrofa, UniProt P00591); details: reference 10; read-out: Affinity IC50; cited from earlier work
T2 sequence (P00591 1-450): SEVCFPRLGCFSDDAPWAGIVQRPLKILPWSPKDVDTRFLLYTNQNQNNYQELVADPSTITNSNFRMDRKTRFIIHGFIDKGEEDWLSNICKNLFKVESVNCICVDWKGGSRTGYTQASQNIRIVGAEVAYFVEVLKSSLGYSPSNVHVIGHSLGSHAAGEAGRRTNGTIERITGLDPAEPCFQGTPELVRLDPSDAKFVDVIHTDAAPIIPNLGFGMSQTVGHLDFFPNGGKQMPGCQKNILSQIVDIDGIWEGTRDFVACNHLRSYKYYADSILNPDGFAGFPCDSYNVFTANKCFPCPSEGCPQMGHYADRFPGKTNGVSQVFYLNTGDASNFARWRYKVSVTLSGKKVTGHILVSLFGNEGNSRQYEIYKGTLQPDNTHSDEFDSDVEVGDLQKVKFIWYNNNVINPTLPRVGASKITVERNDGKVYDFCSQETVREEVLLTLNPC

Beta-lactamase = Beta-lactamase (Stenotrophomonas maltophilia, UniProt P52700); details: reference 11; read-out: Affinity IC50; cited from earlier work
factor XIa = molecular target: T3, factor XIa (Homo sapiens, UniProt P03951); test: Specificity measurement, factor XIa; assay type: biochemical; details: highest concentration tested 10 μM
T3 construct: factor XIa (0.8 nM; Innovative Research, Southfiled, Mich., USA); purchased Innovative Research (Southfiled, Mich., USA)

human thrombin = molecular target: T4, human thrombin (Homo sapiens, UniProt P00734); test: Specificity measurement, thrombin; assay type: biochemical; details: highest concentration tested 10 μM
T4 construct: the activity of human thrombin (2 nM; Innovative Research, Southfiled, Mich., USA); purchased Innovative Research (Southfiled, Mich., USA)

mouse plasma kallikrein = molecular target: T5, mouse plasma kallikrein (Mus musculus, UniProt P26262); test: Specificity measurement, mouse plasma kallikrein; assay type: biochemical; details: highest concentration tested 10 μM
T5 construct: purchased R&D Systems (Minneapolis, Minn., USA)
Protocol: as §1
as §1, with “ratio” for “ration”, “equation.” for “equation (Cheng, Y. and Prusoff, W. H., Biochem. Pharmacol., 1973).”

plasma kallikrein [7] = molecular target: T1, plasma kallikrein; test: Hydrolysis of the inhibitor on incubation with human plasma kallikrein; assay type: in vitro ADME; set-up: purchased Innovative Research (Southfiled, Mich., USA)
Protocol: as §1
as §1, with “ratio” for “ration”, “equation.” for “equation (Cheng, Y. and Prusoff, W. H., Biochem. Pharmacol., 1973).”

Urease = Urease (Helicobacter pylori, UniProt P14916+P69996); details: read-out: Affinity IC50; reference 9; cited from earlier work
Human kallikrein 2 = Human kallikrein 2 (Homo sapiens, UniProt P20151); details: reference 2; read-out: Affinity IC50; cited from earlier work
DNase II = details: reference 12; read-out: Affinity K1; cited from earlier work
Chymotrypsin = Chymotrypsin (Bos taurus, UniProt P00766); details: reference 5; read-out: Affinity K1; cited from earlier work
[8] = molecular target: Urokinase-type plasminogen activator (uPA) (Homo sapiens, UniProt P00749); details: reference 3; read-out: Affinity K1; cited from earlier work
TF-fVII = TF-fVII (Homo sapiens, UniProt P08709); details: reference 6; read-out: Affinity IC50; cited from earlier work
ErbB-2 = ErbB-2 (Homo sapiens, UniProt P04626); details: reference 8; read-out: Affinity K1; cited from earlier work

T1 sequence (P03952 391-638 limits assumed): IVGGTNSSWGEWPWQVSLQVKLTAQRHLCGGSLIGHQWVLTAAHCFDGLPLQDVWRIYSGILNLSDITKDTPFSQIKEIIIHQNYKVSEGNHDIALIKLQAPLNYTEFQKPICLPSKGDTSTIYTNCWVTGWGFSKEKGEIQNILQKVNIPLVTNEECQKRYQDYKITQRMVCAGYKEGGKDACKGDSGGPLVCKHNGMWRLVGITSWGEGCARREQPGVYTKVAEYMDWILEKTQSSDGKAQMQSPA
T1 sequence (P03952 20-390 partner limits assumed): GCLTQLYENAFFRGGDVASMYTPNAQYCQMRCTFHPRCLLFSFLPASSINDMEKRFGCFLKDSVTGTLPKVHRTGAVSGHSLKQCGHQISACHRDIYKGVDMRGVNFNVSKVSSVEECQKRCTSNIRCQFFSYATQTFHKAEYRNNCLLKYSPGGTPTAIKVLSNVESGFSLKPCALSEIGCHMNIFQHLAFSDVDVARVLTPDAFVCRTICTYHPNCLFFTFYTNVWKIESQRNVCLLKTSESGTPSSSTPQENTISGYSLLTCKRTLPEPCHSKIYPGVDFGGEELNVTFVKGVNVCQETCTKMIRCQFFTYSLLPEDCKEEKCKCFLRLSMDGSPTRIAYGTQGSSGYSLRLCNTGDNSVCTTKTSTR
Sequence of Angiotensin converting enzyme 2 (ACE2) (Q9BYF1 18-805, species assumed): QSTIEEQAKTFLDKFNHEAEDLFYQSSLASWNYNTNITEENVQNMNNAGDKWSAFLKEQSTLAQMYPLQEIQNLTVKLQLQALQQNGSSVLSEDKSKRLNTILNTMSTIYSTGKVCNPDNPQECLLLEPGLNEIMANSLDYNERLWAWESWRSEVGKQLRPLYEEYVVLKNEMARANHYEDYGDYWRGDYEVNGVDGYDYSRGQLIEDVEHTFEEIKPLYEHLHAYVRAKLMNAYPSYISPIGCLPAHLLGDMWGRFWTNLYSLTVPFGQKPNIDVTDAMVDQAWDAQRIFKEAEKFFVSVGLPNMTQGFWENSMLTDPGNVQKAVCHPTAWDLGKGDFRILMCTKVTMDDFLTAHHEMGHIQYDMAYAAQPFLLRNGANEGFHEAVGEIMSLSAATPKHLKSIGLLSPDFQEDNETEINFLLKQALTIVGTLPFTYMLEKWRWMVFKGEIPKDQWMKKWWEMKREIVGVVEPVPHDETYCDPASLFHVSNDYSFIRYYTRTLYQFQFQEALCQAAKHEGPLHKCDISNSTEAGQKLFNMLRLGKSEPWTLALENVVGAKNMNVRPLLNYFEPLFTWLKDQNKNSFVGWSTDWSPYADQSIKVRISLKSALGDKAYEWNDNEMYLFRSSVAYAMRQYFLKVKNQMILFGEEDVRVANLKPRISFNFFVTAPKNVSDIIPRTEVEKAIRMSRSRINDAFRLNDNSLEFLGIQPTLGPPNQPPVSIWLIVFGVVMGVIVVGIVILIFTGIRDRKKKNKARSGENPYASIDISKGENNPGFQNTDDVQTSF
Sequence of Urease (P69996 whole entry): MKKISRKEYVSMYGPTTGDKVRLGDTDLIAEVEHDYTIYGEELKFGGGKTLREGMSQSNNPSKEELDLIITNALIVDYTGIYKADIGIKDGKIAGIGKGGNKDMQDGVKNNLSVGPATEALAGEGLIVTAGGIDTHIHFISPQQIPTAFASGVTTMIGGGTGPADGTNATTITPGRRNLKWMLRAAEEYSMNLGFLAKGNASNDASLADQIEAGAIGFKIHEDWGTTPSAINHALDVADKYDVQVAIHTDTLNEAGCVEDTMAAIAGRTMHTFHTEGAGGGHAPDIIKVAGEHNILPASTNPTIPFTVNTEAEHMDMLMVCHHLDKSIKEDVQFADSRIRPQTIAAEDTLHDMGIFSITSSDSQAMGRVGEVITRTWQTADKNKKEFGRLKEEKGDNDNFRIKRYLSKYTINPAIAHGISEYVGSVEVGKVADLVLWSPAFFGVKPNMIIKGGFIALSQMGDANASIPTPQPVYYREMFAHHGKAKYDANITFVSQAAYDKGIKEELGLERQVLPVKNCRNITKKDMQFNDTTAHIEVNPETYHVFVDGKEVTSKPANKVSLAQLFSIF
Sequence of Urease (P14916 whole entry): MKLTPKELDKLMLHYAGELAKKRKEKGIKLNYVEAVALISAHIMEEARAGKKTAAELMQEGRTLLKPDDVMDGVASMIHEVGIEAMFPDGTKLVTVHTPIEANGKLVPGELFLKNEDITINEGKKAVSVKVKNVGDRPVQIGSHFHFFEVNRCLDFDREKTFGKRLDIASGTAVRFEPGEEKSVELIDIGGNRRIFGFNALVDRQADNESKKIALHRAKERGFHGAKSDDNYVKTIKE
T5 sequence (P26262 391-638 limits assumed): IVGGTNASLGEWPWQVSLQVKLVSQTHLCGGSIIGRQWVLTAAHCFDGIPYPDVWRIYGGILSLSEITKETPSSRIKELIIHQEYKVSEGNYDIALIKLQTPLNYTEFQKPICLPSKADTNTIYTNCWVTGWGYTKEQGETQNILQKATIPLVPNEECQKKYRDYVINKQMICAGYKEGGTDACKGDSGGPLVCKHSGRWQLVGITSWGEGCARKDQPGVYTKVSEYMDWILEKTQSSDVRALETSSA
T5 sequence (P26262 20-390 partner limits assumed): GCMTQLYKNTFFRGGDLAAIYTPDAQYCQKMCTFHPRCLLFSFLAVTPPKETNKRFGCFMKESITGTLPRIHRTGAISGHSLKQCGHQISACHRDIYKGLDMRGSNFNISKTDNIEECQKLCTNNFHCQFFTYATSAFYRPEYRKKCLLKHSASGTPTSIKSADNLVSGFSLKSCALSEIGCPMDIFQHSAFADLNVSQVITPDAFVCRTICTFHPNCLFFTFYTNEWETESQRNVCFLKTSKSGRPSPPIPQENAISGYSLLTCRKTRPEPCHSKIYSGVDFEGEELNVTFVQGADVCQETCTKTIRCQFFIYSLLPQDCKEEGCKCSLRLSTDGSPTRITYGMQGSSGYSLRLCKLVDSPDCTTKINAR
Sequence of Human kallikrein 2 (P20151 25-261): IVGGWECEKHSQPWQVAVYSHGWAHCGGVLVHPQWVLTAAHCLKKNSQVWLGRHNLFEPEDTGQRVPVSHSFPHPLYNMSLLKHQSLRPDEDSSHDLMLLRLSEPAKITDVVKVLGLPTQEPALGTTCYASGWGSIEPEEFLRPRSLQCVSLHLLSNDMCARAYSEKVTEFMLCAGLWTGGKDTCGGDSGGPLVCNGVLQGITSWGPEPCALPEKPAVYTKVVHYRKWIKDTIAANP
Sequence of Urokinase-type plasminogen activator (uPA) (Mus musculus, UniProt P06869) (P06869 21-433): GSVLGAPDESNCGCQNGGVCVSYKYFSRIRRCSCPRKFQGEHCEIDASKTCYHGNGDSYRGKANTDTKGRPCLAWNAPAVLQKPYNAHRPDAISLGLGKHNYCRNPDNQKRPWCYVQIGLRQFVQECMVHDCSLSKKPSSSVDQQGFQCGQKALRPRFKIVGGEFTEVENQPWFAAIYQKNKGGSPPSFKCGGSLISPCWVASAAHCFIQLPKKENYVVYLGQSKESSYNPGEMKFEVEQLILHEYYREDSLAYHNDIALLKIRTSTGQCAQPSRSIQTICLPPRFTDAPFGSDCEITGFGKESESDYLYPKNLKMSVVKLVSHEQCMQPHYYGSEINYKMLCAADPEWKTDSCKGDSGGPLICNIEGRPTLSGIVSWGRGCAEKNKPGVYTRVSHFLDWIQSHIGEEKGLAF
Sequence of Beta-lactamase (P52700 34-290): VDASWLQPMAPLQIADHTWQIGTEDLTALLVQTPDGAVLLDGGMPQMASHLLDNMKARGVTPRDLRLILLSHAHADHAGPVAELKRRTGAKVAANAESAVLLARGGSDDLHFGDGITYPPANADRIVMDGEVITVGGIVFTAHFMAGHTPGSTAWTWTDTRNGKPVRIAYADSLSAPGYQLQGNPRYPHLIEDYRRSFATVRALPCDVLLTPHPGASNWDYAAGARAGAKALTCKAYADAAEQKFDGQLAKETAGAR
Sequence of TF-fVII (P08709 213-466 limits assumed): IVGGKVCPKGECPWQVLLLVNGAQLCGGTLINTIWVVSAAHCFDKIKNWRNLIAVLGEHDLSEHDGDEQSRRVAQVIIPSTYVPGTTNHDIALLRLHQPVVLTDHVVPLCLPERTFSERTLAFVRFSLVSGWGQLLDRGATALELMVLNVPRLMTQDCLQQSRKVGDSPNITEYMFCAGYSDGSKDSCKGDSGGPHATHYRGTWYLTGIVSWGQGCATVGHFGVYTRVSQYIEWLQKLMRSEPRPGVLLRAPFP
Sequence of TF-fVII (P08709 61-212 partner limits assumed): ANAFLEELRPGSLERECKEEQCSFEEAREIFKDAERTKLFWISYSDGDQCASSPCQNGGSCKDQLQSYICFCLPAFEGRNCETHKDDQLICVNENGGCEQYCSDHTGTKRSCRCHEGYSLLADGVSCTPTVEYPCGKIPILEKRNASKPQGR
Sequence of TF-fVII (P13726 33-295 partner): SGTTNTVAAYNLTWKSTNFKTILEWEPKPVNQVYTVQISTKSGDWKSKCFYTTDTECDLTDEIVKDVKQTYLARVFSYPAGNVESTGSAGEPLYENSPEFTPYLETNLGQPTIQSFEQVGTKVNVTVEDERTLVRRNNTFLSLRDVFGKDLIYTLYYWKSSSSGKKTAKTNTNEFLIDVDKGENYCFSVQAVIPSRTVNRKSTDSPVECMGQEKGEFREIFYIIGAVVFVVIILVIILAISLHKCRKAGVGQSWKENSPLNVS

In the case of GDYSHCSPLRYYPWWKCTYPDP, the Ki [1] is given as 0.0028 µM.

For CC(C)[C@@H]1NC(=O)[C@H](CCCNC(=N)N)NC(=O)[C@@H]2CSCc3cc(cc(c3)CSC[C@@H](C(=O)NCC(N)=O)NC(=O)[C@@H]3CCCN3C(=O)[C@H]([C@@H](C)O)NC(=O)[C@H](Cc3c[nH]c4ccccc34)NC(=O)[C@H](CC(N)=O)NC1=O)CSC[C@H](NC(=O)[C@H](C)N)C(=O)NCC(=O)N[C@@H]([C@@H](C)O)C(=O)NCC(=O)N[C@@H](CCC(=O)O)C(=O)NCC(=O)N[C@@H](CCCNC(=N)N)C(=O)N2 [PK13] (H-ACGTGEGRCRVNWTPCG-NH2; linker 2-9-16 via TBMB), the IC50 (plasma kallikrein [2]) was 39.1 nM.

In the case of CPAYSRYLDC, the Ki [3] is given as 0.4 µM.

For aprotinin, the “thrombin formation in human plasma” value [4] is listed as “had no effect”, the “lag time of thrombin activation” value ([4]; 5 μM inhibitor concentration) is listed as “more prolonged by aprotinin than by the small molecule inhibitor” and the adverse effects [5] is listed as “anaphylaxis and renal toxicity”. For the same compound, the IC50 [6] was 5 µM.

In the case of CQPHPGQTC, the IC50 (Pancreatic lipase) is listed as 16 µM.

For CVHSPNREC, the IC50 (Beta-lactamase) is listed as 9 µM.

CC[C@H](C)[C@@H]1NC(=O)[C@H](CCC(=O)O)NC(=O)[C@H]([C@@H](C)CC)NC(=O)[C@@H]2CCCN2C(=O)[C@@H]2CSCc3cc(cc(c3)CSC[C@@H](C(=O)NCC(N)=O)NC(=O)[C@@H]3CCCN3C(=O)[C@H](Cc3ccccc3)NC1=O)CSC[C@H](NC(=O)[C@H](C)N)C(=O)N[C@@H](CO)C(=O)N[C@@H]([C@@H](C)O)C(=O)N[C@@H](CCC(=O)O)C(=O)N[C@@H](CCCNC(=N)N)C(=O)N[C@@H](CCCNC(=N)N)C(=O)N[C@@H](Cc1ccc(O)cc1)C(=O)N2 [PK4] (H-ACSTERRYCPIEIFPCG-NH2; linker 2-9-16 via TBMB) gave an IC50 (plasma kallikrein [2]) of 33 nM.

With CC(C)C[C@@H]1NC(=O)[C@H](C)NC(=O)[C@H](CCC(=O)O)NC(=O)[C@H](CC(=O)O)NC(=O)[C@H](C)NC(=O)[C@@H]2CCCN2C(=O)[C@@H]2CSCc3cc(cc(c3)CSC[C@@H](C(=O)NCC(N)=O)NC1=O)CSC[C@H](NC(=O)[C@H](C)N)C(=O)N[C@@H](CO)C(=O)N[C@@H](CC(=O)O)C(=O)N[C@@H](CCCNC(=N)N)C(=O)N[C@@H](Cc1ccccc1)C(=O)N[C@@H](CCCNC(=N)N)C(=O)N[C@@H](CC(N)=O)C(=O)N2 [PK15] (H-ACSDRFRNCPADEALCG-NH2; linker 2-9-16 via TBMB (inferred)) the “thrombin formation in human plasma” value [4] was “delayed thrombin formation”, the “lag time of thrombin generation compared to control sample (FIG. 8)” value ([4]; 5, 50, 500 or 5000 nM) was “dose-dependent prolongation of lag time” and the “inhibition of human factor XIa” value (factor XIa) was “did not inhibit”. The “inhibition of human thrombin” value (human thrombin) was “did not inhibit”, the “inhibition of mouse plasma kallikrein” value (mouse plasma kallikrein) was “did not inhibit” and the Ki (plasma kallikrein [2]) was 0.0015 µM. The IC50 (plasma kallikrein [2]) was 1.7 nM, the “interruption of intrinsic coagulation pathway / contact activation in human plasma ex vivo” value [6] was “efficiently interrupted the intrinsic coagulation pathway” and the “activation of factor XIIa and plasma kallikrein in human plasma” value ([6]; 5 μM, plasma of three donors) was “essentially be suppressed”. For the same compound, the IC50 [6] was 0.16 µM, the “cleavage of a peptide bond on incubation with kallikrein” value (plasma kallikrein [7]; 24 h at 37° C.) was 90% and the “state after prolonged incubation with human plasma kallikrein” value (plasma kallikrein [7]; cleaved in one of the loops) was “remained intact and active”.

CSCC[C@@H]1NC(=O)[C@H](CC(C)C)NC(=O)[C@H](CC(=O)O)NC(=O)[C@H](CCC(=O)O)NC(=O)[C@H](Cc2ccc(O)cc2)NC(=O)[C@@H]2CSCc3cc(cc(c3)CSC[C@@H](C(=O)NCC(N)=O)NC(=O)[C@H](Cc3c[nH]c4ccccc34)NC1=O)CSC[C@H](NC(=O)[C@H](C)N)C(=O)N[C@@H](C)C(=O)N1CCC[C@H]1C(=O)N[C@@H](Cc1c[nH]c3ccccc13)C(=O)N[C@@H](CCCNC(=N)N)C(=O)N[C@@H]([C@@H](C)O)C(=O)N[C@@H](C)C(=O)N2 [PK6] (H-ACAPWRTACYEDLMWCG-NH2; linker 2-9-16 via TBMB) gave an IC50 (plasma kallikrein [2]) of 21.2 nM.

For YDFYWW, the IC50 (Urease) is given as 30 µM.

In the case of SRFKVWWAAF, the IC50 (Human kallikrein 2) is given as 3.4 µM.

For CLRLLQWFLWAC, the Ki (DNase II) is listed as 0.2 µM.

In the case of CCFSWRCRC, the Ki (Chymotrypsin) is given as 1 µM.

For CSWRGLENHRMC, the Ki [8] is given as 6.7 µM.

In the case of EEWEVLCWTWETCER, the IC50 (TF-fVII) is listed as 0.0015 µM.

For KCCYSL, the Ki (ErbB-2) is given as 30 µM.
